# In patent US20100022491A1, “4-HYDROXY-2-OXO-2,3-DIHYDRO-1,3-BENZOTHIAZOL-7YL COMPOUNDS FOR MODULATION OF B2-ADRENORECEPTOR ACTIVITY” (ASTRAZENECA AB, priority 2006, published 2010):
# Where a name gives a salt, the structure may show the parent alone.
# What was measured:
# Adrenergic β2 = molecular target: T1, Adrenergic β2 (Homo sapiens, UniProt P07550); test: Adrenergic β2 mediated cAMP production in H292 cells; type: cell-based; settings: for EC50: H292 cells, cAMP by AlphaScreen, 60 minutes at room temperature, rolipram 300 μM, read-out: β2 pEC50 (converted); for β2 Int Act: Intrinsic Activity as a fraction relative to the maximum activity determined for formoterol
# T1 construct: Adherent H292 cells were removed from tissue culture flasks; endogenous in cells; host or cells: H292 cells
# Procedure, shortened: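 H292 cells pretreated 10 min with rolipram (300 μM final), then exposed to agonist 60 min at room temperature in HEPES-buffered HBSS, 1.6% DMSO final. Lysate cAMP quantified by AlphaScreen against a cAMP standard curve; four-parameter fit gives pEC50 and intrinsic activity relative to formoterol maximum.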
# [1] = molecular target: T2, recombinant human Dopamine Subtype D2s receptors (Homo sapiens, UniProt P14416); test: Dopamine D2 selectivity binding assay ([3H]-spiperone); settings: inhibition of [3H]-spiperone (0.16 nM) binding; read-out: D2 bind pIC50 (converted)
# T2 construct: purchased Perkin Elmer
# Procedure, shortened: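 Recombinant human D2s membranes incubated 2 h at room temperature with 0.16 nM [3H]-spiperone in HEPES/EDTA/NaCl/gelatin buffer, pH 7.4; 10 μM haloperidol defined non-specific binding. Filter-bound radioactivity counted after cold washes. pIC50 from 4-parameter logistic fit of NSB-corrected specific binding.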
# T2 sequence (P14416 1-414 isoform P14416-2): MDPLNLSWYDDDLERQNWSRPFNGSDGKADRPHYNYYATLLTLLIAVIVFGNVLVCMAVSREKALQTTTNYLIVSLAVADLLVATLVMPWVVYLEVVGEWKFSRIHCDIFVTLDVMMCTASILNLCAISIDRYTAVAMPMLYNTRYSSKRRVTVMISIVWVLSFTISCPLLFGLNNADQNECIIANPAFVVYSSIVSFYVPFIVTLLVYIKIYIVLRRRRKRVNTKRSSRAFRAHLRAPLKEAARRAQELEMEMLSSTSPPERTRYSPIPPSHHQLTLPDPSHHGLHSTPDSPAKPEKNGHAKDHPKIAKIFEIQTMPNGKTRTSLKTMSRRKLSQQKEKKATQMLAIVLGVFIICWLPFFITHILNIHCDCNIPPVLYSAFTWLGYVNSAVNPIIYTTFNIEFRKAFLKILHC
# T1 sequence (P07550 whole entry): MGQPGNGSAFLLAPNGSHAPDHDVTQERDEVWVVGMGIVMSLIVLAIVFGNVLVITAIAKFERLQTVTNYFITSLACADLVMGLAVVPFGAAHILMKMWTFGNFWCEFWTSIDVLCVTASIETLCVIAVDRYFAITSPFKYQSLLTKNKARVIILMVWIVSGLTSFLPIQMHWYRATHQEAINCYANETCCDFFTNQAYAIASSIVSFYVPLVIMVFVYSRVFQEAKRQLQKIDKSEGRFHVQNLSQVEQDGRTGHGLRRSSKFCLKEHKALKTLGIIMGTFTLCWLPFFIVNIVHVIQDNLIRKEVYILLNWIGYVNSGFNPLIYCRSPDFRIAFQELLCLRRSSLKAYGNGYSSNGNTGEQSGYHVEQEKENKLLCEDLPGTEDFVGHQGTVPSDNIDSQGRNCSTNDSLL
SMILES,EC50 (Adrenergic β2) [nM],β2 Int Act (Adrenergic β2),IC50 [1] [nM]
"COc1cccc(CCNCCC(=O)N(CCNCCc2ccc(O)c3[nH]c(=O)sc23)CC(C)(C)C)c1 [Example 43, N^1-(2,2-Dimethylpropyl)-N^1-(2-{[2-(4-hydroxy-2-oxo-2,3-dihydro-1,3-benzothiazol-7-yl)ethyl]amino}ethyl)-N^3-[2-(3-methoxyphenyl)ethyl]-β-alaninamide bis-trifluoroacetic acid salt]",10,0.67,200
"O=C(CCNCCc1cccc(Cl)c1)N(CCNCCc1ccc(O)c2[nH]c(=O)sc12)C1CCOCC1 [Example 22, N^3-[2-(3-Chlorophenyl)ethyl]-N-(2-{[2-(4-hydroxy-2-oxo-2,3-dihydro-1,3-benzothiazol-7-yl)ethyl]amino}ethyl)-N-(tetrahydro-2H-pyran-4-yl)-β-alaninamide bis-trifluoroacetic acid salt]",2.51,0.96,7940
"O=C(CCNCCc1ccccc1)N(CCNCCc1ccc(O)c2[nH]c(=O)sc12)C1CCCCCC1 [Example 23, N-Cycloheptyl-N-(2-{[2-(4-hydroxy-2-oxo-2,3-dihydro-1,3-benzothiazol-7-yl)ethyl]amino}ethyl)-N^3-(2-phenylethyl)-β-alaninamide bis-trifluoroacetic acid salt]",1,0.85,251
"O=C(CCNCCc1cccs1)N(CCNCCc1ccc(O)c2[nH]c(=O)sc12)C1CCCCCC1 [Example 52, N^1-Cycloheptyl-N^1-(2-{[2-(4-hydroxy-2-oxo-2,3-dihydro-1,3-benzothiazol-7-yl)ethyl]amino}ethyl)-N^3-[2-(2-thienyl)ethyl]-β-alaninamide bis-trifluoroacetic acid salt]",3.16,0.92,39.8
"NS(=O)(=O)c1ccc(CCNCCC(=O)N(CCNCCc2ccc(O)c3[nH]c(=O)sc23)C2CCCCC2)cc1 [Example 69, N^3-{2-[4-(Aminosulfonyl)phenyl]ethyl}-N^1-cyclohexyl-N^1-(2-{[2-(4-hydroxy-2-oxo-2,3-dihydro-1,3-benzothiazol-7-yl)ethyl]amino}ethyl)-β-alaninamide bis-trifluoroacetic acid salt]",2,0.82,100
"O=C(CCNCCc1ccc(F)cc1F)N(CCNCCc1ccc(O)c2[nH]c(=O)sc12)C1CCCCCC1 [Example 55, N^1-Cycloheptyl-N^3-[2-(2,4-difluorophenyl)ethyl]-N^1-(2-{[2-(4-hydroxy-2-oxo-2,3-dihydro-1,3-benzothiazol-7-yl)ethyl]amino}ethyl)-β-alaninamide bis-trifluoroacetic acid salt]",10,0.81,20
"C[C@H](CNCCC(=O)N(CCNCCc1ccc(O)c2[nH]c(=O)sc12)C1CCCC1)c1ccccc1 [Example 31, N-cyclopentyl-N-(2-{[2-(4-hydroxy-2-oxo-2,3-dihydro-1,3-benzothiazol-7-yl)ethyl]amino}ethyl)-N^3-[(2S)-2-phenylpropyl]-β-alaninamide bis-trifluoroacetic acid salt]",10,0.92,251
"O=C(CCNCCc1cccc(F)c1F)N(CCNCCc1ccc(O)c2[nH]c(=O)sc12)C1CCCCC1 [Example 81, N^1-Cyclohexyl-N^3-[2-(2,3-difluorophenyl)ethyl]-N^1-(2-{[2-(4-hydroxy-2-oxo-2,3-dihydro-1,3-benzothiazol-7-yl)ethyl]amino}ethyl)-β-alaninamide bis-trifluoroacetic acid salt]",2.51,0.89,316
"O=C(CCNCCc1ccc(F)c(F)c1)N(CCNCCc1ccc(O)c2[nH]c(=O)sc12)C1CCCCC1 [Example 73, N^1-Cyclohexyl-N^3-[2-(3,4-difluorophenyl)ethyl]-N^1-(2-{[2-(4-hydroxy-2-oxo-2,3-dihydro-1,3-benzothiazol-7-yl)ethyl]amino}ethyl)-β-alaninamide bis-trifluoroacetic acid salt]",5.01,0.85,200
"O=C(CCNCCc1cccc(Cl)c1)N(CCNCCc1ccc(O)c2[nH]c(=O)sc12)C1Cc2ccccc2C1 [Example 42, N^3-[2-(3-Chlorophenyl)ethyl]-N^1-(2,3-dihydro-1H-inden-2-yl)-N^1-(2-{[2-(4-hydroxy-2-oxo-2,3-dihydro-1,3-benzothiazol-7-yl)ethyl]amino}ethyl)-β-alaninamide bis-trifluoroacetic acid salt]",15.8,0.82,100
"CCCC[C@H](C)N(CCNCCc1ccc(O)c2[nH]c(=O)sc12)C(=O)CCNCCc1ccccc1 [Example 102, N-(2-{[2-(4-Hydroxy-2-oxo-2,3-dihydro-1,3-benzothiazol-7-yl)ethyl]amino}ethyl)-N-[(1S)-1-methylpentyl]-N^3-(2-phenylethyl)-β-alaninamide bis-trifluoroacetic acid salt]",79.4,0.23,79.4
"O=C(CCNCCc1cccc(Cl)c1)N(CCNCCc1ccc(O)c2[nH]c(=O)sc12)C1CCCCCC1 [Example 50, N^3-[2-(3-Chlorophenyl)ethyl]-N^1-cycloheptyl-N^1-(2-{[2-(4-hydroxy-2-oxo-2,3-dihydro-1,3-benzothiazol-7-yl)ethyl]amino}ethyl)-β-alaninamide bis-trifluoroacetic acid salt]",1.26,0.91,31.6
"O=C(CCNCCc1cccc(F)c1F)N(CCNCCc1ccc(O)c2[nH]c(=O)sc12)C1CCCCCC1 [Example 56, N^1-Cycloheptyl-N^3-[2-(2,3-difluorophenyl)ethyl]-N^1-(2-{[2-(4-hydroxy-2-oxo-2,3-dihydro-1,3-benzothiazol-7-yl)ethyl]amino}ethyl)-β-alaninamide bis-trifluoroacetic acid salt]",5.01,0.86,31.6
"O=C(CCNCCc1cccc(C(F)(F)F)c1)N(CCNCCc1ccc(O)c2[nH]c(=O)sc12)C1CCCCCC1 [Example 82, N^1-Cycloheptyl-N^1-(2-{[2-(4-hydroxy-2-oxo-2,3-dihydro-1,3-benzothiazol-7-yl)ethyl]amino}ethyl)-N^3-{2-[3-(trifluoromethyl)phenyl]ethyl}-β-alaninamide bis-trifluoroacetic acid salt]",79.4,0.86,50.1
"CC(C)(C)CN(CCNCCc1ccc(O)c2[nH]c(=O)sc12)C(=O)CCNCCc1ccc(Cl)cc1 [Example 8, N^3-[2-(4-Chlorophenyl)ethyl]-N-(2,2-dimethylpropyl)-N-(2-{[2-(4-hydroxy-2-oxo-2,3-dihydro-1,3-benzothiazol-7-yl)ethyl]amino}ethyl)-β-alaninamide bis-trifluoroacetic acid salt]",10,0.73,398
"Cc1cccc(CCNCCC(=O)N(CCNCCc2ccc(O)c3[nH]c(=O)sc23)C2CCOCC2)c1 [Example 25, N-(2-{[2-(4-Hydroxy-2-oxo-2,3-dihydro-1,3-benzothiazol-7-yl)ethyl]amino}ethyl)-N^3-[2-(3-methylphenyl)ethyl]-N-(tetrahydro-2H-pyran-4-yl)-β-alaninamide bis-trifluoroacetic acid salt]",7.94,1.05,2510
